ChEMBL document CHEMBL1201862, “PubChem BioAssay data set” (2004)
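All cell lines were grown in 96-well plates and treated with compound for 48 hours. Here, GI50 denotes the concentration required for 50% inhibition of growth.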 Activity calls are given as the source filed them. No stated cut-off is given here; in the data, active = GI50 up to about 1.1 µM and inactive = higher.

Assays:
Assay in all cases: NCI tumour cell line growth inhibition, 48 h
KM12 = system: KM12
M14 = system: M14
HCC 2998 = system: HCC 2998
OVCAR-3 = system: OVCAR-3
EKVX = system: EKVX
DU-145 = system: DU-145
LOX IMVI = system: LOX IMVI
OVCAR-5 = system: OVCAR-5
SW-620 = system: SW-620
HL-60 = system: HL-60
SK-MEL-5 = system: SK-MEL-5
HT-29 = system: HT-29
RXF 393 = system: RXF 393
NCI/ADR-RES = system: NCI/ADR-RES
SF-295 = system: SF-295
PC-3 = system: PC-3
SF-268 = system: SF-268
U-251 = system: U-251
ACHN = system: ACHN
SN12C = system: SN12C
A498 = system: A498
786-0 = system: 786-0
T47D = system: T47D
SNB-19 = system: SNB-19
MDA-N = system: MDA-N
HCT-15 = system: HCT-15
Malme-3M = system: Malme-3M
OVCAR-4 = system: OVCAR-4
SR = system: SR
NCI-H460 = system: NCI-H460
HOP-62 = system: HOP-62
NCI-H23 = system: NCI-H23
TK-10 = system: TK-10
OVCAR-8 = system: OVCAR-8
SK-MEL-28 = system: SK-MEL-28
UO-31 = system: UO-31
UACC-62 = system: UACC-62
Hs-578T = system: Hs-578T
NCI-H226 = system: NCI-H226
MOLT-4 = system: MOLT-4
MDA-MB-231 = system: MDA-MB-231
SNB-75 = system: SNB-75
CCRF-CEM = system: CCRF-CEM
NCI-H522 = system: NCI-H522
MDA-MB-435 = system: MDA-MB-435
IGROV-1 = system: IGROV-1
BT-549 = system: BT-549
COLO 205 = system: COLO 205
UACC-257 = system: UACC-257
A549 = system: A549
RPMI-8226 = system: RPMI-8226
SK-OV-3 = system: SK-OV-3
HCT-116 = system: HCT-116
SK-MEL-2 = system: SK-MEL-2
MCF7 = system: MCF7
CAKI-1 = system: CAKI-1
K562 = system: K562
SF-539 = system: SF-539

CCOC(=O)N1CC2(C)C=CC1C(C(=O)OC)C2 (configuration not stated)
GI50 (KM12): > 100 µM (inactive) | GI50 (M14): > 100 µM (inactive) | GI50 (HCC 2998): > 100 µM (inactive) | GI50 (OVCAR-3): > 100 µM (inactive) | GI50 (EKVX): > 100 µM (inactive) | GI50 (DU-145): > 100 µM (inactive) | GI50 (LOX IMVI): > 100 µM (inactive) | GI50 (OVCAR-5): > 100 µM (inactive) | GI50 (SW-620): > 100 µM (inactive) | GI50 (HL-60): > 100 µM (inactive) | GI50 (SK-MEL-5): > 100 µM (inactive) | GI50 (HT-29): > 100 µM (inactive) | GI50 (RXF 393): > 100 µM (inactive) | GI50 (NCI/ADR-RES): > 100 µM (inactive) | GI50 (SF-295): > 100 µM (inactive) | GI50 (PC-3): > 100 µM (inactive) | GI50 (SF-268): > 100 µM (inactive) | GI50 (U-251): > 100 µM (inactive) | GI50 (ACHN): > 100 µM (inactive) | GI50 (SN12C): > 100 µM (inactive) | GI50 (A498): > 100 µM (inactive) | GI50 (786-0): > 100 µM (inactive) | GI50 (T47D): > 100 µM (inactive) | GI50 (SNB-19): > 100 µM (inactive) | GI50 (MDA-N): > 100 µM (inactive) | GI50 (HCT-15): > 100 µM | GI50 (Malme-3M): > 100 µM (inactive) | GI50 (OVCAR-4): > 100 µM (inactive) | GI50 (SR): > 100 µM (inactive) | GI50 (NCI-H460): > 100 µM (inactive) | GI50 (HOP-62): > 100 µM (inactive) | GI50 (NCI-H23): > 100 µM (inactive) | GI50 (TK-10): > 100 µM (inactive) | GI50 (OVCAR-8): > 100 µM (inactive) | GI50 (SK-MEL-28): > 100 µM (inactive) | GI50 (UO-31): > 100 µM (inactive) | GI50 (UACC-62): > 100 µM (inactive) | GI50 (Hs-578T): > 100 µM (inactive) | GI50 (NCI-H226): 69.8 µM (inactive) | GI50 (MOLT-4): > 100 µM (inactive) | GI50 (MDA-MB-231): > 100 µM (inactive) | GI50 (SNB-75): > 100 µM (inactive) | GI50 (CCRF-CEM): > 100 µM (inactive) | GI50 (NCI-H522): > 100 µM (inactive) | GI50 (MDA-MB-435): > 100 µM (inactive) | GI50 (IGROV-1): > 100 µM (inactive) | GI50 (BT-549): > 100 µM (inactive) | GI50 (COLO 205): > 100 µM (inactive) | GI50 (UACC-257): > 100 µM (inactive) | GI50 (A549): > 100 µM (inactive) | GI50 (RPMI-8226): > 100 µM (inactive) | GI50 (SK-OV-3): > 100 µM (inactive) | GI50 (HCT-116): > 100 µM (inactive) | GI50 (SK-MEL-2): > 100 µM (inactive) | GI50 (MCF7): > 100 µM (inactive) | GI50 (CAKI-1): > 100 µM (inactive) | GI50 (K562): > 100 µM (inactive)

CCOP(=O)(OCC)/C(=C/n1c(=S)[nH]c2ccccc21)C(=O)OC
GI50 (KM12): > 100 µM (inactive) | GI50 (M14): > 100 µM (inactive) | GI50 (HCC 2998): 51.9 µM (inactive) | GI50 (OVCAR-3): 0.0311 µM (active) | GI50 (EKVX): > 100 µM (inactive) | GI50 (DU-145): > 100 µM (inactive) | GI50 (LOX IMVI): > 100 µM (inactive) | GI50 (OVCAR-5): > 100 µM (inactive) | GI50 (SW-620): > 100 µM (inactive) | GI50 (HL-60): > 100 µM (inactive) | GI50 (SK-MEL-5): > 100 µM (inactive) | GI50 (HT-29): > 100 µM (inactive) | GI50 (RXF 393): > 100 µM (inactive) | GI50 (NCI/ADR-RES): > 100 µM (inactive) | GI50 (SF-295): > 100 µM (inactive) | GI50 (PC-3): > 100 µM (inactive) | GI50 (SF-268): > 100 µM (inactive) | GI50 (U-251): > 100 µM (inactive) | GI50 (ACHN): > 100 µM (inactive) | GI50 (SN12C): > 100 µM (inactive) | GI50 (A498): > 100 µM (inactive) | GI50 (786-0): > 100 µM (inactive) | GI50 (T47D): > 100 µM (inactive) | GI50 (MDA-N): > 100 µM (inactive) | GI50 (HCT-15): 11.7 µM | GI50 (Malme-3M): > 100 µM (inactive) | GI50 (OVCAR-4): 45.1 µM (inactive) | GI50 (SR): > 100 µM (inactive) | GI50 (SF-539): > 100 µM (inactive) | GI50 (NCI-H460): 10 µM (inactive) | GI50 (HOP-62): > 100 µM (inactive) | GI50 (NCI-H23): > 100 µM (inactive) | GI50 (OVCAR-8): > 100 µM (inactive) | GI50 (SK-MEL-28): > 100 µM (inactive) | GI50 (UACC-62): > 100 µM (inactive) | GI50 (Hs-578T): 95.1 µM (inactive) | GI50 (NCI-H226): > 100 µM (inactive) | GI50 (MOLT-4): > 100 µM (inactive) | GI50 (MDA-MB-231): > 100 µM (inactive) | GI50 (SNB-75): 34.4 µM (inactive) | GI50 (CCRF-CEM): > 100 µM (inactive) | GI50 (NCI-H522): > 100 µM (inactive) | GI50 (MDA-MB-435): > 100 µM (inactive) | GI50 (IGROV-1): > 100 µM (inactive) | GI50 (BT-549): > 100 µM (inactive) | GI50 (COLO 205): > 100 µM (inactive) | GI50 (UACC-257): > 100 µM (inactive) | GI50 (A549): > 100 µM (inactive) | GI50 (RPMI-8226): > 100 µM (inactive) | GI50 (SK-OV-3): > 100 µM (inactive) | GI50 (HCT-116): > 100 µM (inactive) | GI50 (SK-MEL-2): > 100 µM (inactive) | GI50 (MCF7): > 100 µM (inactive) | GI50 (CAKI-1): > 100 µM (inactive) | GI50 (K562): > 100 µM (inactive)
